{"source": "patent US20140096445A1", "about": "“METHOD OF CULTIVATION IN WATER DEFICIT CONDITIONS” (SYNGENTA PARTICIPATIONS AG, priority 2011, published 2014)", "format_in_all_cases": "in vivo", "key": {"[1]": {"test_system": "corn", "experiment": "Greenhouse subsurface drip irrigation trial, deficit irrigated, Examples 4-8", "settings": "for % Yield Increase by Product over Untr./50% Irr. / Yield: SDI chemigated at V3/V4, 50% irrigated deficit, Azoxystrobin 261, PPZ 126, TXP 250, PBZ 12.5, TMX 70 gai/ha; for Yield compared with the control, in words: water stress regime (50% irrigated), SDI", "protocol": "A greenhouse subsurface drip irrigation trial was conducted on corn to evaluate treatment effects on yield in fully irrigated vs. deficit irrigated conditions. In this experiment, standardized growth conditions were applied across all corn treatments including: soil-water availability, soil texture and composition, soil chemical and physical properties, meteorological and environmental parameters, and plant nutrition in a greenhouse. No indication of plant disease or pest damage was observed over the course of the study and no pest management program was necessary. A homogeneous sand-organic matter soil mixture (0.18% organic matter) was used as the growth medium in 55-gal containers. These containers were used as a weighing lysimeter, where daily changes in system weight were used to calculate plant transpiration. Four corn plants were grown in each 55-gal container. Three 55-gal containers (12 plants total) made up each treatment. All irrigation and chemical treatments were applied via sub-surface irrigation. Chemical treatments consisted of: azoxystrobin (Quadris), paclobutrazol (Trimmit), trinexapac-ethyl (Moddus), and propiconazole (Tilt) at maximum labeled rates.\nCorn plants were grown from seed and transplanted in the 55-gal drums approximately 14 days after planting. Uniform adequate irrigation was applied up to growth stage V3/V4 to ensure plant establishment. Chemical treatment applications were applied at growth stage V3/V4 via sub-surface chemigation. At stage V3/V4, irrigation was decreased to replicate deficit water conditions across all treatments for the remainder of the study period. Irrigation was managed daily to maintain 50% plant-available water. Visual signs of abiotic plant stress were observed approximately 30 days after chemical application. All corn plants were grown to yield and cobs were harvested when kernels were uniformly dry (15% moisture content). Root architecture, specifically relative number of fine roots, was measured at within 2 weeks of harvest using a digital imaging technique. Fine roots are related to water uptake productivity, which is directly tied to the ability of the plant to access soil-water under stress."}, "[2]": {"test_system": "corn", "experiment": "SDI split plot field study, 115 day maturity corn hybrid, deficit vs fully irrigated, Example 3", "settings": "261 gai/ha, 50% irrigated deficit"}, "[3]": {"test_system": "corn", "experiment": "Sprinkler irrigation management field test, full vs deficit irrigation, Examples 9-10", "settings": "261 gai/ha, 60% irrigated deficit", "protocol": "A completely random test design (split plot) was conducted using Sprinkler Irrigation. This was an irrigation management test to study treatment effects on yield under full irrigation and deficit irrigation conditions. The field study was set up with four replications and tested on silt loam soil. Overhead sprinkler irrigation and overhead sprinkler chemigation was used in this study. Each plot was 4 rows wide (3 meters) by 9.1 meters long. Soil water status was monitored throughout the growing season using soil moisture sensors. Corn seed was planted with a precision planter at a depth of 2 inches and rows spaced at 30 inches. The planting population was 30,000 seeds per acre. Testing parameters, irrigation levels, and harvesting were conducted according to the University of Nebraska experimental procedure (see, e.g.,: Irmak, S, D. Z. Haman, and R. Bastug. Determination of Crop Water Stress Index for irrigation Timing and Yield Estimation of Corn. 2000. Agronomy Journal. 92:1221-1227). Moisture levels, irrigation levels, and plant health were measured throughout the growing season. Climatic variables were measured (air temperature, rainfall, solar and net radiation, relative humidity, rainfall, wind speed and direction) throughout the season. Irrigation for the fully irrigated treatments was scheduled according crop need based on soil water measurements. The deficit irrigation treatments were scheduled at approximately 60% of the fully irrigated plots (1.2 inches/acre vs. 2 inches of water/acre, respectively). Volumetric soil water content was measured on a weekly basis throughout the crop season to determine total water use. Maintenance crop protection products were applied as needed to manage weeds & pests throughout the season for all treatments including the control. Azoxystrobin (Quadris) was applied via overhead sprinkler irrigation at 261 grams active ingredient/hectare or by foliar application (tractor mounted sprayer) at 261 grams active ingredient/hectare at approximately V6 & R1 stages of the corn. Crop yield from each replication was recorded after harvest and adjusted to 15% moisture content."}, "[4]": {"test_system": "soybean", "experiment": "Lateral-move sprinkler irrigation field study on soybean, Examples 29-30", "settings": "for % IWUE Increase over Untreated / % Seed Mass Increase over Untreated / % Yield Increase over Untreated / IWUE (water productivity) / Seed Mass / Yield: foliar 150 gai/ha, average of 60% & 100% irrigated"}}, "note": "Marks after values point to notes of the source that are not given here."}
{"compound": "CCOC(=O)C1CC(=O)C(=C(O)C2CC2)C(=O)C1", "note": "(centres unmarked) [TXP, trinexapac-ethyl]", "values": [{"measurement": "% Yield Increase by Product over Untr./50% Irr.", "setting": "[1]", "result": "+15.6% Incr. over Untr./50% Irr."}, {"measurement": "Yield", "setting": "[1]", "result": "2133† Kg/Ha"}, {"measurement": "Yield compared with the control, in words", "setting": "[1]", "result": "statistically higher than the control"}]}
{"compound": "CO/C=C(/C(=O)OC)c1ccccc1Oc1cc(Oc2ccccc2C#N)ncn1", "note": "[Azoxystrobin, azoxystrobin]", "values": [{"measurement": "Yield", "setting": "[2]; foliar twice (V8 & V8+14da.)", "result": 250, "unit": "Bu./acre"}, {"measurement": "Azoxystrobin % IWUE Increase over Untr./50% Irr.", "setting": "[2]; foliar", "result": "+3% incr. over"}, {"measurement": "Azoxystrobin % IWUE Increase over Untr./100% Irr.", "setting": "[2]; foliar", "result": "+7% incr. over"}, {"measurement": "Azoxystrobin % Yield Increase over Untr./50% Irr.", "setting": "[2]; foliar", "result": "+3% incr. over"}, {"measurement": "Azoxystrobin % Yield Increase over Untr./100% Irr.", "setting": "[2]; foliar", "result": "+0% incr. over"}, {"measurement": "IWUE (water productivity)", "setting": "[2]; foliar", "result": 494, "unit": "lbs./acre in."}, {"measurement": "% Yield Increase by Product over Untr./50% Irr.", "setting": "[1]", "result": "+12.5% Incr. over Untr./50% Irr."}, {"measurement": "Yield", "setting": "[1]", "result": "2077† Kg/Ha"}, {"measurement": "Yield compared with the control, in words", "setting": "[1]", "result": "statistically higher than the control"}, {"measurement": "Yield", "setting": "[3]; foliar-applied (V6 & R1)", "result": 196, "unit": "Bu./acre"}, {"measurement": "Azoxystrobin % Yield Increase over 60% Untr.", "setting": "[3]; foliar-applied", "result": "+3% Incr."}, {"measurement": "Azoxystrobin % Yield Increase over 100% Untr.", "setting": "[3]; foliar-applied", "result": "+4% Incr."}, {"measurement": "Yield", "setting": "[3]; sprinkler chemigated (V6 & R1)", "result": 197, "unit": "Bu./acre"}, {"measurement": "Azoxystrobin % Yield Increase over 60% Untr.", "setting": "[3]; sprinkler chemigated", "result": "+4% Incr."}, {"measurement": "Azoxystrobin % Yield Increase over 100% Untr.", "setting": "[3]; sprinkler chemigated", "result": "+5% Incr."}, {"measurement": "Seed mass, statistical statement", "setting": "[4]; all Quadris treatments", "result": "Statistically significant difference in seed mass"}, {"measurement": "% IWUE Increase over Untreated", "setting": "[4]; one application", "result": "+2% over"}, {"measurement": "% Seed Mass Increase over Untreated", "setting": "[4]; one application", "result": "+3% over"}, {"measurement": "% Yield Increase over Untreated", "setting": "[4]; one application", "result": "+2% over"}, {"measurement": "IWUE (water productivity)", "setting": "[4]; one application", "result": 129, "unit": "lbs/acre-inch"}, {"measurement": "Seed Mass", "setting": "[4]; one application", "result": 148, "unit": "a mg"}, {"measurement": "Yield", "setting": "[4]; one application", "result": 48.4, "unit": "Bu./acre"}, {"measurement": "Water productivity, in words", "setting": "[4]; soybean, sprinkler irrigation", "result": "increase in water productivity"}, {"measurement": "% IWUE Increase over Untreated", "setting": "[4]; two applications", "result": "+6% over"}, {"measurement": "% Seed Mass Increase over Untreated", "setting": "[4]; two applications", "result": "+6% over"}, {"measurement": "% Yield Increase over Untreated", "setting": "[4]; two applications", "result": "+5% over"}, {"measurement": "IWUE (water productivity)", "setting": "[4]; two applications", "result": 133, "unit": "lbs/acre-inch"}, {"measurement": "Seed Mass", "setting": "[4]; two applications", "result": 151, "unit": "a mg"}, {"measurement": "Yield", "setting": "[4]; two applications", "result": 49.7, "unit": "Bu./acre"}]}
